Assay results taken from PubChem BioAssay (NCI).
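How tested: cells in 96-well plates exposed to compound for 48 hours at five concentrations. GI50 marks 50% less growth. TGI: concentration producing complete growth inhibition.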

Tests used:
Test in all cases: DTP human tumour cell line panel, 48 h
786-0 renal = tested on: 786-0 renal
A498 renal = tested on: A498 renal
A549 NSCLC = tested on: A549 NSCLC
ACHN renal = tested on: ACHN renal
BT-549 breast = tested on: BT-549 breast
CAKI-1 renal = tested on: CAKI-1 renal
CCRF-CEM leukemia = tested on: CCRF-CEM leukemia
COLO 205 colon = tested on: COLO 205 colon
DU-145 prostate = tested on: DU-145 prostate
EKVX NSCLC = tested on: EKVX NSCLC
HCT-116 colon = tested on: HCT-116 colon
HCT-15 colon = tested on: HCT-15 colon
HL-60(TB) leukemia = tested on: HL-60(TB) leukemia
HOP-62 NSCLC = tested on: HOP-62 NSCLC
HOP-92 NSCLC = tested on: HOP-92 NSCLC
HS 578T breast = tested on: HS 578T breast
HT29 colon = tested on: HT29 colon
IGROV1 ovarian = tested on: IGROV1 ovarian
K-562 leukemia = tested on: K-562 leukemia
KM12 colon = tested on: KM12 colon
LOX IMVI melanoma = tested on: LOX IMVI melanoma
M14 melanoma = tested on: M14 melanoma
MALME-3M melanoma = tested on: MALME-3M melanoma
MCF7 breast = tested on: MCF7 breast
MDA-MB-231 breast = tested on: MDA-MB-231 breast
MDA-MB-435 = tested on: MDA-MB-435
MOLT-4 leukemia = tested on: MOLT-4 leukemia
NCI-H226 lung = tested on: NCI-H226 lung
NCI-H23 lung = tested on: NCI-H23 lung

CC(=O)OC1Oc2ccccc2-c2oc(=O)c(-c3cc(=O)oc4cc(O)ccc34)cc21 (configuration not stated)
GI50 (786-0 renal): 16.2 µM
TGI (786-0 renal): 38.4 µM
GI50 (A498 renal): 13.3 µM
TGI (A498 renal): 40.4 µM
GI50 (A549 NSCLC): 24 µM
TGI (A549 NSCLC): > 100 µM
GI50 (ACHN renal): 23.1 µM
TGI (ACHN renal): 79.2 µM
GI50 (BT-549 breast): 15.3 µM
TGI (BT-549 breast): 41.4 µM
GI50 (CAKI-1 renal): 21.7 µM
TGI (CAKI-1 renal): 83.7 µM
GI50 (CCRF-CEM leukemia): 9.38 µM
TGI (CCRF-CEM leukemia): 40.8 µM
GI50 (COLO 205 colon): 18.2 µM
TGI (COLO 205 colon): 51.2 µM
GI50 (DU-145 prostate): 19.4 µM
TGI (DU-145 prostate): 50.5 µM
GI50 (EKVX NSCLC): 17.5 µM
TGI (EKVX NSCLC): 49.3 µM
GI50 (HCT-116 colon): 25 µM
TGI (HCT-116 colon): > 100 µM
GI50 (HCT-15 colon): 21.3 µM
TGI (HCT-15 colon): 96.4 µM
GI50 (HL-60(TB) leukemia): 21.8 µM
TGI (HL-60(TB) leukemia): > 100 µM
GI50 (HOP-62 NSCLC): 20.8 µM
TGI (HOP-62 NSCLC): 55.2 µM
GI50 (HOP-92 NSCLC): 14.1 µM
TGI (HOP-92 NSCLC): 40.9 µM
GI50 (HS 578T breast): 17.9 µM
TGI (HS 578T breast): 52 µM
GI50 (HT29 colon): 26.4 µM
TGI (HT29 colon): > 100 µM
GI50 (IGROV1 ovarian): 20.8 µM
TGI (IGROV1 ovarian): 83.6 µM
GI50 (K-562 leukemia): 9.45 µM
TGI (K-562 leukemia): > 100 µM
GI50 (KM12 colon): 19.8 µM
TGI (KM12 colon): 46.4 µM
GI50 (LOX IMVI melanoma): 17.8 µM
TGI (LOX IMVI melanoma): 37.5 µM
GI50 (M14 melanoma): 26.7 µM
TGI (M14 melanoma): 83.9 µM
GI50 (MALME-3M melanoma): 20.9 µM
TGI (MALME-3M melanoma): 59.2 µM
GI50 (MCF7 breast): 29.9 µM
TGI (MCF7 breast): > 100 µM
GI50 (MDA-MB-231 breast): 24.9 µM
TGI (MDA-MB-231 breast): 81.5 µM
GI50 (MDA-MB-435): 18.4 µM
TGI (MDA-MB-435): 54.4 µM
GI50 (MOLT-4 leukemia): 4.33 µM
TGI (MOLT-4 leukemia): 20.1 µM
GI50 (NCI-H226 lung): 27.1 µM
TGI (NCI-H226 lung): 67.3 µM
GI50 (NCI-H23 lung): 5.53 µM
